The text below walks through data of PubChem BioAssay (NCI).

SMILES strings stand for the structures.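 Each compound was tested at five concentrations against cells in 96-well plates for 48 hours. GI50 = concentration required for 50% inhibition of growth. The concentration for full growth arrest is given as TGI.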

Test systems include UO-31 renal; TK-10 renal; SK-OV-3 ovarian; CCRF-CEM leukemia; SN12C renal; EKVX NSCLC; HOP-92 NSCLC; MALME-3M melanoma; T-47D breast; HS 578T breast.
What all share (experiment): NCI tumour cell line growth inhibition, 48 h

For the compound `CC(C)[O-].CC(C)[O-].O=C1C=C([O-])C(=O)c2ccccc21.O=C1C=C([O-])C(=O)c2ccccc21.[Ti+4]`, the GI50 in the assay on UO-31 renal is greater than 100 µM; in the assay with TK-10 renal, greater than 100 µM; in the assay on SK-OV-3 ovarian it was greater than 100 µM; in the assay with CCRF-CEM leukemia it was greater than 73 µM; in the assay on SN12C renal, greater than 100 µM; in the assay on EKVX NSCLC, greater than 44.8 µM. Besides, the GI50 is greater than 100 µM in the assay with HOP-92 NSCLC and 14.7 µM in the assay with MALME-3M melanoma. The TGI in the assay with UO-31 renal was greater than 100 µM; in the assay on TK-10 renal, greater than 100 µM; with SK-OV-3 ovarian, greater than 100 µM; with CCRF-CEM leukemia, greater than 100 µM; in the assay with SN12C renal, greater than 100 µM; in the assay on EKVX NSCLC, greater than 91.1 µM. For the same compound, the TGI with HOP-92 NSCLC and in the assay with MALME-3M melanoma was greater than 100 µM throughout.
On to `CC1=C(C(=O)Nc2cc(=O)n(C)c(=O)n2C)C(c2cccc([N+](=O)[O-])c2)C(C(=O)Nc2cc(=O)n(C)c(=O)n2C)=C(C)N1`, for which the TGI in the assay with UO-31 renal, in the assay with TK-10 renal, with SK-OV-3 ovarian, in the assay on CCRF-CEM leukemia, in the assay on SN12C renal and with EKVX NSCLC was greater than 100 µM each time. Besides, the TGI in the assay with HOP-92 NSCLC and with MALME-3M melanoma was greater than 100 µM in each case.
For `COc1ccc(-c2cc(=O)c3ccccc3o2)cc1N`, the TGI in the assay with UO-31 renal, in the assay on TK-10 renal, in the assay on SK-OV-3 ovarian, with CCRF-CEM leukemia, in the assay with SN12C renal and in the assay on EKVX NSCLC was greater than 100 µM in each case. Further, the TGI with HOP-92 NSCLC and in the assay with MALME-3M melanoma was greater than 100 µM in each case.
As for `C[C@]12CCC(=O)C(O)=C1CC[C@@H]1C2CC[C@]2(C)NC(=O)CCC12` (some centres not stated), the TGI in the assay with UO-31 renal, in the assay with TK-10 renal, in the assay with SK-OV-3 ovarian, in the assay on CCRF-CEM leukemia, in the assay with SN12C renal and with EKVX NSCLC was greater than 100 µM throughout. Besides, the TGI with HOP-92 NSCLC and with MALME-3M melanoma was greater than 100 µM in each case.
`NC1CCC(Nc2nc(NCc3ccc(-c4ccccc4O)nc3)c3ncn(C4CCCC4)c3n2)CC1` (configuration not stated): the GI50 was 0.0252 µM in the assay on T-47D breast; 0.0759 µM with UO-31 renal; 0.0306 µM in the assay on TK-10 renal; 0.036 µM in the assay with SK-OV-3 ovarian; less than 0.01 µM with CCRF-CEM leukemia; 0.0149 µM in the assay on SN12C renal. Also, the GI50 was 0.0291 µM with EKVX NSCLC, 0.02 µM in the assay on HOP-92 NSCLC and less than 0.011 µM in the assay with HS 578T breast. Besides, the TGI in the assay on T-47D breast was found to be 0.0791 µM; with UO-31 renal, 0.545 µM; in the assay with TK-10 renal, 1.33 µM; in the assay on SK-OV-3 ovarian, 0.431 µM; with CCRF-CEM leukemia, 1.22 µM; in the assay with SN12C renal, 1.38 µM. Also, the TGI was 0.474 µM in the assay with EKVX NSCLC, 0.077 µM in the assay on HOP-92 NSCLC and 1.34 µM with HS 578T breast.
Regarding `CCN(CC)CCCNC(=O)C1COc2cc(-c3cc(=O)c4ccccc4o3)ccc2O1` (configuration not stated), the TGI with UO-31 renal, in the assay on TK-10 renal, in the assay on SK-OV-3 ovarian, in the assay on CCRF-CEM leukemia, with SN12C renal and in the assay with EKVX NSCLC was greater than 100 µM each time. The TGI in the assay with HOP-92 NSCLC is greater than 100 µM; with MALME-3M melanoma it was 36.8 µM.
With `COc1ccc(NC(=O)CC/C(CC(=O)C(C)(C)C)=N\NC(=O)C(=O)NN)cc1`, the TGI with UO-31 renal, in the assay with TK-10 renal, with SK-OV-3 ovarian, in the assay with CCRF-CEM leukemia, in the assay with SN12C renal and in the assay on EKVX NSCLC was greater than 100 µM throughout. Moreover, the TGI in the assay on HOP-92 NSCLC and in the assay with MALME-3M melanoma was greater than 100 µM throughout.
In the case of `O=C(CCc1nnc2s/c(=C\c3ccc(Cl)c(Cl)c3)c(=O)n12)Nc1ccc(Cl)c(Cl)c1`, the TGI was greater than 100 µM with UO-31 renal; greater than 100 µM in the assay on TK-10 renal; greater than 100 µM in the assay with SK-OV-3 ovarian; 60.2 µM in the assay on CCRF-CEM leukemia; greater than 100 µM in the assay with SN12C renal; greater than 100 µM in the assay with EKVX NSCLC. For the same compound, the TGI in the assay on HOP-92 NSCLC and in the assay on MALME-3M melanoma was greater than 100 µM throughout.
Take `O=C1c2ccccc2-c2oc(=O)c3ccccc3c21`: the TGI with T-47D breast, with UO-31 renal, in the assay with TK-10 renal, with SK-OV-3 ovarian, in the assay with CCRF-CEM leukemia and with SN12C renal was greater than 100 µM in each case. Also, the TGI with EKVX NSCLC, in the assay with HOP-92 NSCLC and with HS 578T breast was greater than 100 µM throughout.
Take `N#CC1=C(N)Oc2c(ccc3ccccc23)C1c1ccccc1` (configuration not stated): the GI50 in the assay on UO-31 renal is 0.0622 µM; in the assay with TK-10 renal, 7.57 µM; in the assay on SK-OV-3 ovarian, 0.0796 µM; with CCRF-CEM leukemia, 0.0437 µM; in the assay on SN12C renal, 0.0793 µM; with EKVX NSCLC, 0.315 µM. Besides, the figures for the GI50 with HOP-92 NSCLC and in the assay with HS 578T breast were 0.0413 µM and 0.0316 µM, respectively. Further, the TGI in the assay on UO-31 renal turned out to be 15.2 µM; in the assay with TK-10 renal it was 27 µM; in the assay on SK-OV-3 ovarian, 19 µM; with CCRF-CEM leukemia, 41.5 µM; in the assay on SN12C renal, 13.7 µM; in the assay with EKVX NSCLC, 20.1 µM. For the same compound, the TGI worked out at 12.9 µM in the assay on HOP-92 NSCLC and 21.3 µM in the assay on HS 578T breast.
Consider `Cc1cc(-c2nc3sccn3c2/C=N/N=C(N)N)c(C)s1`, for which the GI50 is 17.5 µM in the assay on T-47D breast; 21.1 µM in the assay on UO-31 renal; 17.4 µM in the assay on TK-10 renal; 17.5 µM in the assay on SK-OV-3 ovarian; 16.6 µM in the assay with CCRF-CEM leukemia; 15.7 µM in the assay on SN12C renal. The GI50 with EKVX NSCLC is 10.5 µM. Further, the TGI came to 32.8 µM in the assay on T-47D breast; 36.9 µM with UO-31 renal; 31.5 µM with TK-10 renal; 32.3 µM with SK-OV-3 ovarian; 48 µM with CCRF-CEM leukemia; 30.9 µM in the assay with SN12C renal. The compound further displayed a TGI in the assay on EKVX NSCLC of 23.4 µM.
Consider `CNC/C(Cl)=N/S(=O)(=O)c1ccc(C)cc1`, for which the TGI in the assay with UO-31 renal came out at 36.6 µM; in the assay with TK-10 renal, 28.6 µM; with SK-OV-3 ovarian, 56.6 µM; with SN12C renal, 28.1 µM; in the assay with EKVX NSCLC it was 40.4 µM; in the assay on HOP-92 NSCLC, 51.1 µM. The results for the TGI in the assay on HS 578T breast and in the assay on MALME-3M melanoma were greater than 100 µM and 27.5 µM, respectively.
On to `C#CCOCn1cnc2c(Sc3c([N+](=O)[O-])ncn3C)ncnc21`, for which the TGI in the assay with UO-31 renal, in the assay with TK-10 renal, in the assay on SK-OV-3 ovarian, with CCRF-CEM leukemia, in the assay with SN12C renal and with EKVX NSCLC was greater than 100 µM in each case. For the same compound, the TGI in the assay on HOP-92 NSCLC and in the assay with MALME-3M melanoma was greater than 100 µM in each case.
